Experimental data published in patent US9241976B2, “Use of HDL-related molecules to treat and prevent proinflammatory conditions” (THE REGENTS OF THE UNIVERSITY OF CALIFORNIA, priority 2011, dated 2016).

Assays:
[1] = tested on: cis-platinum-resistant human ovarian cancer cells; conditions: reference (17); cited from earlier work
[2] = tested on: HIF-1α mRNA; assay: HIF-1α mRNA, real-time RT-PCR; type: cell-based, human
Description: Total RNA was extracted from cells by using a PureLink RNA Mini Kit (Invitrogen). The quantity and quality of RNA were assessed by using a SmartSpec 3000 Spectrophotometer (Bio-Rad Laboratories, Hercules, Calif.). cDNA was synthesized by using the High Capacity cDNA Reverse Transcription Kit (Applied Biosystems, Foster City, Calif.) according to the manufacturer's instructions. PCRs were performed by using the CFX96 realtime PCR system (Applied Biosystems). The cycling conditions were as follows: 3 min at 95° C. followed by 40 cycles of 95° C., 10 s; 60° C., 10 s; 72° C., 30 s followed by a final extension at 72° C. for 10 min. Each 25-μl reaction contained 0.4 μg of cDNA, 12.5 μl of SYBR Green qPCR SuperMix (Bio-Rad Laboratories), and 250 nM forward and reverse primers in nuclease-free water. […]

[3] = tested on: CD31; assay: CD31 immunohistochemistry of lung surface tumors; type: in vivo, mouse; conditions: 100 mg/kg/d in chow diet for 3 weeks, vs control mice
Description: Tumor tissues from the lung surface were fixed and embedded with paraffin, sectioned at […] thickness. Sections were deparaffinized with xylene, rehydrated with 100%, 90%, 70%, and 50% ethanol, treated with proteinase K at […] for 30 minutes, and treated with 3% H2O2 for 30 minutes at room temperature to inhibit endogenous peroxidase, blocked with 10% normal goat serum and 4% bovine serum albumin prepared in PBS for 3 hours, and then incubated with 1:50 rat antimouse monoclonal CD31 antibody overnight at 4° C. The sections were incubated with corresponding biotinylated secondary antibody for 1 hour, followed by incubation with Vectastain ABC Elite reagents.

[4] = tested on: mouse ovarian cancer cells (ID-8 cells); conditions: reference (17); cited from earlier work
[5] = tested on: ROS; assay: Cellular reactive oxygen species, dichlorofluorescein oxidation assay in OV2008 cells; type: cell-based, human; conditions: 10 μg/ml pretreatment 1 h
Description: As described previously (Zhou et al., 2007; Lee et al., 2009), OV2008 cells were plated onto a glass slip (Thermo Fisher Scientific) in a 24-well plate at 4×10^4 cells per well, cultured overnight in normal cultured condition, starved in serum-free media overnight, and treated with L-4F (10 μg/ml) for 1 h. Then, dichlorofluorescein diacetate (DCFHDA, 10 μM) and insulin (200 nM)/CoCl2 (100 μM) were added and incubated with the cells for an additional 0.5 h. The cells were washed twice with phosphate-buffered saline (PBS). The images were captured with a fluorescence microscope (Olympus IX70; Olympus, Tokyo, Japan).

[6] = reference (17); cited from earlier work
[7] = tested on: CT26 cells; assay: Cell-cycle analysis of CT26 cells by flow cytometry; type: cell-based, mouse; parameters: dose or concentration left out as unconfirmed; conditions: 48 hours
Description: CT26 cells were cultured in 6-well plates overnight and then serum starved for 48 hours. […] Cells were collected, washed with PBS, and fixed with 70% ice-cold methanol overnight at 4° C. The fixed cells were collected by centrifugation, washed with PBS, and resuspended in 0.3 mL of PBS containing […] RNaseA and […] propidium iodide, and subjected to flow cytometric cell-cycle analysis by FACScan from BD Biosciences.

[8] = tested on: lysophosphatidic acid (LPA); assay: Plasma LPA levels in treated mice; type: in vivo, mouse; conditions: for plasma LPA levels: vs control mice
Description: LPA (20:4) was purchased from Avanti Polar Lipids. LPA levels were determined as described previously (Murph et al., 2007, Methods Enymol 433:1-25).
LPA (20:4) was purchased from Avanti Polar Lipids. LPA levels were determined as described previously (19).

[9] = tested on: CT26 cells; assay: Pulmonary metastasis in vivo: CT26 lung tumors in BALB/c mice; parameters: species or system mouse; conditions: CT26 via tail vein
Description: BALB/c mice were intravenously injected with 2×10^4 CT26 cells in 100 μL of PBS via tail vein injection and the mice were treated with bHDL at 10 mg/kg/day administered SQ for 3 weeks; or treated with bHDL at 100 mg/kg/day administered in a chow diet for 3 weeks. After 3 weeks treatment, the mice were sacrificed; lungs were harvested, weighed and fixed with Bouin's solution (Sigma). Tumor nodules on the lung surface were counted.
BALB/c mice were intravenously injected with 2×10^4 CT26 cells in […] of PBS via tail vein injection and the mice were treated with L-4F or sc-4F at 10 mg/kg/d administered subcutaneously for 3 weeks, or treated with sc-4F or L-4F or G* peptide at 100 mg/kg/d administered in a chow diet for 3 weeks. After 3 weeks treatment, the mice were sacrificed; lungs were harvested, weighed, and fixed with Bouin solution (Sigma). Tumor nodules on the lung surface were counted.

[10] = tested on: NIH3T3 cells; assay: NIH3T3 cell viability, MTS assay; type: cell-based; conditions: 10 μg/mL, 48 hours
Description: CT26 and NIH3T3 cells (2,000 cells per well) were first cultured in complete medium in 96-well culture plates, and 24 hours later the medium was replaced with serum-free medium. […] Cells were incubated for an additional 48 hours and assayed for viability using MTS assays kit (Promega) according to the manufacturer's protocol.

[11] = 10 mg/kg/d subcutaneously for 3 weeks
[12] = 100 mg/kg/d in chow diet for 3 weeks

Ac-DWFKAFYDKVAEKFKEAF-NH2 [L-4F, Ac-D-W-F-K-A-F-Y-D-K-V-A-E-K-F-K-E-A-F-NH2]
viability and proliferation [1]: reduced | basal level of HIF-1α mRNA [2]: no effect | CD31 expression in tumors [3]: significant decrease | viability and proliferation [4]: reduced | cellular ROS production induced by insulin and CoCl2 [5]: dramatically prevented | binding of LPA [6]: binds | cell-cycle profile [7]: induced an increase in G0/G1 phase and arrest in S phase | plasma LPA levels ([8]; BALB/c lung tumor mice, 100 mg/kg/d in chow for 3 weeks): significantly reduced | plasma LPA levels ([8]; C57BL/6J-APC^min/+ mice, 100 mg/kg/d in mouse chow for 8 weeks): significantly reduced | decrease of plasma LPA levels compared with control mice ([8]; C57BL/6J-APC^min/+ mice, chow, 8 weeks): > 50% | lung weights [9, 11]: 225 mg | tumor numbers counted on the lung surface [9, 11]: 18 | lung weights [9, 12]: 238 mg | tumor numbers on the lung surface [9, 12]: 12 | NIH3T3 cell viability [10]: not affected
